Structures can show the parent of a compound that is named as a salt.

T1 sequence (Q62758 whole entry): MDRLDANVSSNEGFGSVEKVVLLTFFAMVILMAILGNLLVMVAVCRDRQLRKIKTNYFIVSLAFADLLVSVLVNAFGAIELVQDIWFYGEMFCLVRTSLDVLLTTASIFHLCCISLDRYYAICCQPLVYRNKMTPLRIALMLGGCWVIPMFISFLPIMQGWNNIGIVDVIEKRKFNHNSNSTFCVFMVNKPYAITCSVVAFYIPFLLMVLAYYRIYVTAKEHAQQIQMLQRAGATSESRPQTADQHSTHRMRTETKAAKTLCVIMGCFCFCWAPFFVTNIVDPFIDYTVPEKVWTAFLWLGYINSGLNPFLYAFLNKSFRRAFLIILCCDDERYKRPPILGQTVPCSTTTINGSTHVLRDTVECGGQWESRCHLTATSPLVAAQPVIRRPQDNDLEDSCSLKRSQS

One data set concerns the target T1, 5-HT4 receptor (Rattus norvegicus, UniProt Q62758).
T1 construct: a muscular sample of mucous membrane in esophgus exentrated from a rat; from tissue; host or cells: rat oesophagus, muscularis mucosae (isolated)
Briefly: Agonisting action to 5-HT4 receptor: relaxation of carbachol-contracted muscular sample of mucous membrane of rat esophagus (Baxter et al.). It is filed as cell-based. The note with it: carbachol contraction, read-out: P EC50 (negative logarithm of concentration causing 50% relaxation) (converted). An excerpt:
(Agonisting action to 5-HT4 receptor)
Pharmacol.", Vol. 343, page 439 (1991)!.
Namely, a relaxation of the Test and Control compounds in various concentration showing to carbachol contradiction of a muscular sample of mucous membrane in esophgus exentrated from a rat was checked to calculate a concentration causing 50% relaxation and compared with its negative logarithm (P EC50).
As to `Nc1c(Cl)cc(C(=O)NCCC23CCCN2CCC3)c2c1CCCO2` [Example 1, 5-Amino-N-2-(1-azabicyclo 3.3.0!octan-5-yl)ethyl!-6-chloro-3,4-dihydro-2H-1-benzopyran-8-carboxamide·1/2 fumarate], the EC50 was 0.00501 µM.
For the molecule `CC1CCc2c(N)c(Cl)cc(C(=O)NCCC34CCCN3CCC4)c2O1` (stereo not drawn) [Example 2, 5-Amino-N-2-(1-azabicyclo 3.3.0!octan-5-yl)ethyl!-6-chloro-3,4-dihydro-2-methyl-2H-1-benzopyran-8-carboxamide·1/2 fumarate], the EC50 was 0.02 µM.
The same measure, in the same setting: the result for `Nc1c(Cl)cc(C(=O)NCCC23CCCN2CCC3)c2c1C=CCO2` [Example 3, 5-Amino-N-2-(1-azabicyclo 3.3.0!octan-5-yl)ethyl!-6-chloro-2H-1-benzopyran-8-carboxamide·1/2 fumarate] reads 0.0251 µM; that for `O=C(NCCC12CCCN1CCC2)c1cccc2c1OCCC2` [Example 4, N-2-(1-Azabicyclo 3.3.0!octan-5-yl)ethyl!-3,4-dihydro-2H-1-benzopyran-8-carboxamide·1/2 fumarate], 12.6 µM.
On the same count and under the same terms, then `O=C(NCCC12CCCN1CCC2)c1ccc(Cl)c2c1OCCC2` [Example 5, N-2-(1-Azabicyclo 3.3.0!octan-5-yl)ethyl!-3,4-dihydro-5-chloro-2H-1-benzopyran-8-carboxamide· fumarate], with 25.1 µM; and `O=C(NCCC12CCCN1CCC2)c1cc(Cl)cc2c1OCCC2` [Example 6, N-2-(1-Azabicyclo 3.3.0!octan-5-yl)ethyl!-3,4-dihydro-6-chloro-2H-1-benzopyran-8-carboxamide·1/2 fumarate], with 12.6 µM.
With `COc1cc2c(c(C(=O)NCCC34CCCN3CCC4)c1)OCCC2` [Example 7, N-2-(1-Azabicyclo 3.3.0!octan-5-yl)ethyl!-3,4-dihydro-6-methoxy-2H-1-benzopyran-8-carboxamide·1/2 fumarate], the EC50 is 25.1 µM.
With `Cc1ccc(C(=O)NCCC23CCCN2CCC3)c2c1CCCO2` [Example 8, N-2-(1-Azabicyclo 3.3.0!octan-5-yl)ethyl!-3,4-dihydro-5-methyl-2H-1-benzopyran-8-carboxamide·1/2 fumarate], the EC50 is 20 µM.
On to `Cc1cc2c(c(C(=O)NCCC34CCCN3CCC4)c1)OCCC2` [Example 9, N-2-(1-Azabicyclo 3.3.0!octan-5-yl)ethyl!-3,4-dihydro-6-methyl-2H-1-benzopyran-8-carboxamide·1/2 fumarate], for which the EC50 is 15.8 µM.
Consider `CC(=O)Nc1c(Cl)cc(C(=O)NCCC23CCCN2CCC3)c2c1CCCO2` [Example 10, 5-Acetylamino-N-2-(1-azabicyclo 3.3.0!octan-5-yl)ethyl!-6-chloro-3,4-dihydro-2H-1-benzopyran-8-carboxamide· fumarate], for which the EC50 was 7.94 µM.

Another data set relates to dopamine D2 receptor.
Assay: not given
The settings on record: rat, in vivo, po, 100 mg/kg. The source says: The compounds obtained by Examples as well as known compound (Metoclopramide) were selected as Test and Control Compounds, respectively. The compound was orally administered to rats to observe for 2 days general symptoms including catalepsy and blepharoptosis due to antagonistic action of the compound to dopamine D2 receptor.
For `CCN(CC)CCNC(=O)c1cc(Cl)c(N)cc1OC` [Metoclopramide, 4-amino-5-chloro-N-(2-diethylamino)ethyl!-2-methoxybenzamide], the “influence to central nerve system due to anti-dopamine action” value is reported as “somewhat remarkable influence was recognized”.

The next data set deals with 5-HT4 receptor.
Assay: not given
The settings on record: known compound, as said in the art; cited from earlier work.
For the molecule `COc1cc(N)c(Cl)cc1C(=O)NC1CCN(CCCOc2ccc(F)cc2)CC1OC` (stereo not drawn) [Cisapride], the “agonisting action to 5-HT4 receptor” value is reported as “strong agonisting action to 5-HT4 receptor”.

Values taken from US5502209A, “Benzopyrancarboxamide derivatives, salts thereof, process for the preparation of same and use thereof” (Sanwa Kagaku Kenkyusho Co., Ltd., priority 1994, dated 1996).
